What was measured:
[1] = molecular target: T1, hNPR-C (Homo sapiens, UniProt P17342); test: Competitive binding to membranes from cells expressing human NPR-C; set-up: expressed in transfected cells; conditions: FIG. 19, in comparison to rat ANP
T1 sequence (P17342 27-541): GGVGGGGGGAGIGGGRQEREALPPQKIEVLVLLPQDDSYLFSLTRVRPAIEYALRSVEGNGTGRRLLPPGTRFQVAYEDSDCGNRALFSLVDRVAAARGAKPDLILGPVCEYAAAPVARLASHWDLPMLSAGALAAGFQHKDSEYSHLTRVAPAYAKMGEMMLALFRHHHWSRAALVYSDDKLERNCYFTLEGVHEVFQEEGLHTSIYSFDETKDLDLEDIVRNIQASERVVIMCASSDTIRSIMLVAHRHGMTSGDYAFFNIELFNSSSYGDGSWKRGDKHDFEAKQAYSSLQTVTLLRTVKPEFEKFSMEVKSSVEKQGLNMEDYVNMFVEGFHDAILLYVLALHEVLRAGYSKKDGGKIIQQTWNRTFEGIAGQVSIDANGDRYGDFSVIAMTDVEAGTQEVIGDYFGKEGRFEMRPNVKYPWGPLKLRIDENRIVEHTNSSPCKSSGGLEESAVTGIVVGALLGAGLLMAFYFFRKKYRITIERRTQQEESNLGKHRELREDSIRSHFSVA
Experimental: Membrane preparation. Stable cell lines expressing human NPR-A (Lowe and Fendly, J. Biol. Chem. 267:21691-21697 (1992)) or human NPR-C (Cunningham et al., EMBO J 13, 2508-2515 (1994)) were removed from cell culture dishes with 0.5 mM EDTA in phosphate buffered saline (PBS), placed in ice cold PBS and centrifuged at 228 g for 10 min at 4° C. The cell pellets were resuspended in ice-cold homogenization buffer (50 mM HEPES, 1 mM EDTA, 1 mM DTT, 0.25 M sucrose, 0.7 mg/mL pepstatin A, 0.5 mg/mL leupeptin and 1 mM PMSF, pH 7.4). The cells were then homogenized using a Brinkman polytron at setting 5 for 30 sec. The homogenate was centrifuged at 400×g for 10 min at 4° C. The supernatant was collected and centrifuged at 100,000×g for 30 min at 4° C. […] Protein concentrations was determined using the Biorad protein assay with IgG as a standard.
(§1) Membrane competition binding assays. […] The plates were washed six times with PBS, then air dried prior to adding scintillant and counted in a Packard Topcount scintillation counter for 1 min/well. Binding was measured in duplicate for each concentration of competitor.
(§2) Data analysis. The competition binding curves and cGMP production dose responses were analyzed by the four-parameter logistic equation with the KaleidaGraph™ program (Synergy Software, PA) to obtain estimates of the IC50 or EC50 values. […]

[2] = tested on: rhesus monkey kidney membranes (NPR-A and NPR-C); test: Competition binding in rhesus monkey kidney membranes; conditions: FIG. 11, rhesus monkey kidney membranes
Experimental: For preparation of membranes from Rhesus monkey tissues, frozen tissue was placed between parafilm and broken up into pieces by hitting with a hammer. Tissue was transferred to a 125 mL polypropylene tube containing 100 mL of ice-cold buffer #1 (50 mM HEPES, pH 7.4, 1 mM EDTA, 250 mM sucrose, 0.7 mg/mL pepstatin A, 0.5 mg/mL leupeptin, 1 mM PMSF, and 1 mM phosphoramidon). Tissue was homogenized with a Brinkman polytron on a setting of 5 two times for 10 sec. The sample was placed on ice between homogenizations. 11 mL of 30 mM MgCl2/100 mM NaCl containing 1 mM phosphoramidon was added to the homogenate. The homogenate was spun at 400×g for 10 min at 4° C. in a HB-4 rotor. The supernatant was transferred to another tube and spun as above. The supernatant was passed though four layers of sterile gauze then centrifuged at 30,000×g for 20 min at 4° C. in a 60 Ti rotor. […]
as §1, §2

With CC[C@H](C)[C@@H]1NC(=O)[C@H](CCCNC(=N)N)NC(=O)[C@H](CC(=O)O)NC(=O)[C@H]([C@@H](C)CC)NC(=O)[C@H](CO)NC(=O)CNC(=O)[C@H]([C@@H](C)O)NC(=O)[C@H](Cc2ccccc2)NC(=O)[C@@H](NC(=O)[C@H](CO)NC(=O)[C@H](CO)NC(=O)[C@H](CCCNC(=N)N)NC(=O)[C@H](CCCNC(=N)N)NC(=O)[C@H](CC(C)C)NC(=O)[C@@H](N)CO)CSSC[C@@H](C(=O)N[C@@H](CC(N)=O)C(=O)N[C@@H](CO)C(=O)N[C@@H](Cc2ccccc2)C(=O)N[C@@H](CCCNC(=N)N)C(=O)N[C@@H](Cc2ccc(O)cc2)C(=O)O)NC(=O)CNC(=O)[C@H](CC(C)C)NC(=O)CNC(=O)[C@H](CO)NC(=O)[C@H](CCC(N)=O)NC(=O)[C@H](C)NC(=O)[C@H](CCCNC(=N)N)NC1=O [ANF 27] the “Binding to human NPR-C membranes, competition for 125I-rat ANP” value [1] was “does not effectively bind” and the “Displacement of 125I-rat ANP binding” value [2] was “a smaller portion of the total binding is displaced”.

From patent US6525022B1, “Receptor specific atrial natriuretic peptides” (Genentech, Inc., priority 1993, dated 2003)
